Calls of active or inactive are those of the source. The rule behind the calls is not given here.
Legend:
[1] = Octanol-water distribution coefficient, log D of the compound by shake flask method; assay type: physicochemical
[2] = Permeability of compound by PAMPA assay; assay type: ADME
Succinate receptor 1 = target: T1, Succinate receptor 1 (Homo sapiens, UniProt Q9BXA5); experiment: Antagonist activity at human SUCNR1 expressed in human CHEM1 cells incubated for 60 mins in presence of [35S]GTPgammaS by scintillation proximity assay; assay type: functional, cell-based, Chem-1
T1 sequence (Q9BXA5 whole entry): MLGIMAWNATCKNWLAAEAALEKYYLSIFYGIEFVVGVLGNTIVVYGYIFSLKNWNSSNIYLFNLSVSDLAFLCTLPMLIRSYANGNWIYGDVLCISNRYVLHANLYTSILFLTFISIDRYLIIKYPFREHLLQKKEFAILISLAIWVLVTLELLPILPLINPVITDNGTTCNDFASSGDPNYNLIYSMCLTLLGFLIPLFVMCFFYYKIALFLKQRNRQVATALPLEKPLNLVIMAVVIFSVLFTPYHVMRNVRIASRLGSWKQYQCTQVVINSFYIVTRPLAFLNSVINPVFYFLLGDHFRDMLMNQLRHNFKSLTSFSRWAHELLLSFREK

[3] = Ionization constant (acid), pKa of the compound by UV metric assay; assay type: physicochemical
[4] = Ionization constant (base), pKa of the compound; assay type: physicochemical
Complement factor D = Complement factor D (Homo sapiens, UniProt P00746); experiment: Inhibition of recombinant human CFD expressed in Escherichia coli incubated up to 2 hrs by TR-FRET assay
Coagulation factor XI = Coagulation factor XI (Homo sapiens, UniProt P03951); experiment: Inhibition of human factor 11a by TR-FRET assay
[5] = Protein binding in human plasma at 5 uM incubated for 4 hrs by LC-MS/MS analysis; assay type: ADME, cell-free; conditions: read-out: PPB (converted)
[6] = Dose normalized AUC in C57BL/6 mouse at 10 mg/kg, po measured after 0.25 to 24 hrs by LC-MS/MS analysis; assay type: ADME, organism-based; conditions: in vivo, time 0.25-24 hrs
[7] = Oral bioavailability in C57BL/6 mouse at 10 mg/kg measured after 0.25 to 24 hrs by LC-MS/MS analysis; assay type: ADME, organism-based; conditions: in vivo, time 0.25-24 hrs
[8] = Oral bioavailability in C57BL/6 mouse measured after 0.25 to 24 hrs by LC-MS/MS analysis; assay type: ADME, organism-based; conditions: in vivo, time 0.25-24 hrs
[9] = Protein binding in C57BL/6 mouse plasma at 5 uM incubated for 4 hrs by LC-MS/MS analysis; assay type: ADME, cell-free; conditions: read-out: PPB (converted)
[10] = Clearance in C57BL/6 mouse at 1 mg/kg, iv administered as bolus dose measured after 0.083 to 24 hrs by LC-MS/MS analysis; assay type: ADME, organism-based; conditions: in vivo, time 0.083-24 hrs
[11] = Dose normalized AUC in C57BL/6 mouse at 3 mg/kg, po measured after 0.25 to 24 hrs by LC-MS/MS analysis; assay type: ADME, organism-based; conditions: in vivo, time 0.25-24 hrs
[12] = target: T2, Succinate receptor 1 (Homo sapiens) (UniProt Q9BXA5); experiment: Antagonist activity at human SUCNR1 expressed in human CHEM1 cell membranes at 100 uM incubated for 60 mins in presence of [35S]GTPgammaS by scintillation proximity assay; assay type: functional; conditions: Chem-1
T2 sequence (whole entry): T1 sequence (Q9BXA5 whole entry)

[13] = Intrinsic clearance in rat liver microsomes; assay type: ADME, Microsome; conditions: read-out: CLH
[14] = target: T3, Succinate receptor 1 (Mus musculus) (UniProt Q99MT6); experiment: Antagonist activity at mouse SUCNR1 100 uM
T3 sequence (whole entry): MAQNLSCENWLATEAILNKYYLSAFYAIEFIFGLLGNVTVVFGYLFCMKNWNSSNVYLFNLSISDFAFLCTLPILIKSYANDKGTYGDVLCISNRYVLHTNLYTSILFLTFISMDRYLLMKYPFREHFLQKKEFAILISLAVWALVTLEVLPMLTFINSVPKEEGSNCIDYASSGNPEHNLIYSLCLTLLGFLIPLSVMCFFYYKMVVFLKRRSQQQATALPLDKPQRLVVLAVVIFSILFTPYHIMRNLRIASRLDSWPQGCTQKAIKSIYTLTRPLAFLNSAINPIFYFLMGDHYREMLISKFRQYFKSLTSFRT

[15] = target: T4, Succinate receptor 1 (Rattus norvegicus) (UniProt Q6IYF9); experiment: Antagonist activity at rat SUCNR1 expressed in CHO-K1 cell membranes at 100 uM incubated for 60 mins in presence of [35S]GTPgammaS by scintillation proximity assay relative to control; assay type: functional; conditions: filed as antagonist
T4 sequence (whole entry): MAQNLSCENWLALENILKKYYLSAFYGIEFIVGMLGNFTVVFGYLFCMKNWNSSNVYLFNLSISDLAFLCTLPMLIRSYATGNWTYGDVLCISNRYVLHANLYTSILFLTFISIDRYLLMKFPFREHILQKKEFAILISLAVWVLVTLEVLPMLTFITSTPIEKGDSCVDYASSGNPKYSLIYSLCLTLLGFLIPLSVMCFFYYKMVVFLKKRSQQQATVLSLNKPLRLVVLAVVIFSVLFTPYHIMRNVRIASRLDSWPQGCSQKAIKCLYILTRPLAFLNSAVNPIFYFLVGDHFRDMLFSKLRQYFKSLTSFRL

Coagulation factor XI, sequence (P03951 19-387 limits assumed): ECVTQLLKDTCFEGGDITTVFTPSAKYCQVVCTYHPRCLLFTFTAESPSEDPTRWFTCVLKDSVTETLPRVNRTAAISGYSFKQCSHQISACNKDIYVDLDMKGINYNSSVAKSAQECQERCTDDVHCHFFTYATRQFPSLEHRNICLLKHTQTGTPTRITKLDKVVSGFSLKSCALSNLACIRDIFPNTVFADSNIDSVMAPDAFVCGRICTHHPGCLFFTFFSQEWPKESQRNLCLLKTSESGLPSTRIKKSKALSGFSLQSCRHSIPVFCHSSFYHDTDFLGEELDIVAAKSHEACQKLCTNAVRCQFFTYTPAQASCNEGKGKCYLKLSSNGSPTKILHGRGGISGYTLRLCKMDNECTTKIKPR
Coagulation factor XI, sequence (P03951 388-625 limits assumed): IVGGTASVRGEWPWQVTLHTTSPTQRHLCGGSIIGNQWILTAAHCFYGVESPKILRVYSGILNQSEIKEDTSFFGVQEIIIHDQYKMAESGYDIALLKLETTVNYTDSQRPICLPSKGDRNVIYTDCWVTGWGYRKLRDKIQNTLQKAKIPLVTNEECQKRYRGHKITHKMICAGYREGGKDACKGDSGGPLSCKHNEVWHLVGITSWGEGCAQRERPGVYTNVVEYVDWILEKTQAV
Complement factor D, sequence (P00746 whole entry): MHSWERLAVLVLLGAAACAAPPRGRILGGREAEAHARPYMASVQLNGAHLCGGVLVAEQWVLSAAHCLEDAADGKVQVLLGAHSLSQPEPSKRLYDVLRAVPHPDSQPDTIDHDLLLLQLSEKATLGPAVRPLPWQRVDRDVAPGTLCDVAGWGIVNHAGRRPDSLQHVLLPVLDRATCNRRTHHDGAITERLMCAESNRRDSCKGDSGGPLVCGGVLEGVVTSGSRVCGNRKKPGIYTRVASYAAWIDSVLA

SMILES	logD [1]	log(permeability) [2]	IC50 (Succinate receptor 1)	other results
O=C(O)C[C@H](NC(=O)c1cccc(-c2ccc(Cl)cc2)c1)c1cccnc1	1.3	-5.3	12 µM	–
O=C(O)Cc1ccccc1NC(=O)c1cccc(-c2ccc(Cl)c(OC3CCNCC3)c2)c1	2.5	-5.4	0.14 µM	pKa [3]: 4.1; pKa [4]: 9.9
NCc1cc(-c2cccc(C(=O)Nc3ccccc3CC(=O)O)c2)ccc1Cl	2.1	-5.3	0.3 µM	IC50 (Complement factor D): > 100 µM; IC50 (Coagulation factor XI): 5.8 µM; fraction unbound at 4 h, 5 µM [5]: 0.021
NCc1cccc(-c2cccc(COc3ccccc3CC(=O)O)c2)c1	–	-4.5	> 100 µM	AUC/dose [6]: 3646 nmol·h/L; bioavailability [7]: > 100%; pKa [3]: 4.4; pKa [4]: 9.4
O=C(O)Cc1ccccc1NC(=O)c1cccc(-c2ccc(Cl)c(O[C@@H]3CCCNC3)c2)c1F	–	-5.3	–	bioavailability [8]: 46%; fraction unbound at 4 h, 5 µM [9]: 0.026; clearance [10]: 0.66 L/h/kg; fraction unbound at 4 h, 5 µM [5]: 0.04; AUC/dose [11]: 1437 nmol·h/L
CN1CCN(Cc2ccc(-c3cccc(C(=O)Nc4ccccc4CC(=O)O)c3)cc2)CC1	0.5	-5.5	–	–
O=C(O)C[C@@H](NC(=O)c1cccc(-c2ccc(Cl)cc2)c1)c1cccnc1	–	–	–	inhibition [12]: inactive
O=C(O)Cc1ccccc1NC(=O)c1cccc(-c2ccc(Cl)cc2)c1	1.9	-3.8	1.3 µM	fraction unbound at 4 h, 5 µM [5]: < 0.01
NCc1cccc(-c2cccc(C(=O)Nc3ccccc3CC(=O)O)c2)c1	–	< -5.3	27 µM	AUC/dose [6]: 206 nmol·h/L; pKa [3]: 4; pKa [4]: 9.5
O=C(O)Cc1ccccc1NC(=O)c1cccc(-c2ccc(Cl)cc2)c1F	1.4	-3.6	–	bioavailability [8]: 95%; clearance [10]: 0.6 L/h/kg; AUC/dose [11]: 7814 nmol·h/L
O=C(O)Cc1ccccc1NC(=O)c1cccc(-c2ccc(Cl)c(O[C@@H]3CCCNC3)c2F)c1	–	-5	–	bioavailability [8]: 81%; clearance [10]: 0.72 L/h/kg; AUC/dose [11]: 2353 nmol·h/L
O=C(O)Cc1cc(F)ccc1NC(=O)c1cccc(-c2cc(O[C@@H]3CCCNC3)c(Cl)cc2F)c1	–	-4.4	–	bioavailability [8]: 137%; clearance [10]: 0.48 L/h/kg; AUC/dose [11]: 5737 nmol·h/L
O=C(O)Cc1ccccc1NC(=O)c1cccc(-c2ccc(Cl)c(OC3CCCNC3)c2)c1 (configuration not stated)	3.6	-4.4	0.52 µM	pKa [3]: 4.1; pKa [4]: 9.4
O=C(O)CC(NC(=O)c1cccc(-c2ccc(Cl)cc2)c1)c1cccnc1 (configuration not stated)	0.9	-5.3	32 µM	microsomal CLint [13]: 25 µL/min/mg
O=C(O)Cc1cc(F)ccc1NC(=O)c1cccc(-c2ccc(Cl)c(O[C@@H]3CCCNC3)c2F)c1	–	-4.9	–	bioavailability [8]: 93%; clearance [10]: 0.072 L/h/kg; AUC/dose [11]: 26100 nmol·h/L
NCCOc1cc(-c2cccc(C(=O)Nc3ccccc3CC(=O)O)c2)ccc1Cl	2.8	-5.4	–	–
O=C(O)Cc1ccccc1NC(=O)c1cccc(-c2ccc(Cl)c(O[C@H]3CCCNC3)c2)c1F	–	–	–	fraction unbound at 4 h, 5 µM [9]: 0.003; fraction unbound at 4 h, 5 µM [5]: 0.014
O=C(O)Cc1cc(F)ccc1NC(=O)c1cccc(-c2cc(O[C@@H]3CCCNC3)c(Cl)cc2F)c1F	–	-5.1	0.088 µM	bioavailability [8]: 74%; inhibition [14]: 23%; inhibition [15]: 56%; clearance [10]: 0.036 L/h/kg; AUC/dose [11]: 37000 nmol·h/L
O=C(Nc1ccccc1C(=O)O)c1cccc(-c2ccc(Cl)cc2)c1	3	-3.7	23 µM	–
O=C(O)Cc1ccccc1NC(=O)c1cccc(-c2ccc(Cl)c(OC3CNC3)c2)c1	2.6	-5.2	–	–
O=C(O)Cc1ccccc1NC(=O)c1cccc(-c2ccc(Cl)c(OC3CCNC3)c2)c1 (configuration not stated)	2.8	-5.3	–	–
